The text below walks through data of ChEMBL document CHEMBL3507680, “University of Dundee, Gates Library screen for HepG2 cell viability”.

The nature of the data set: Human HepG2 cell viability assay in 384 well format. Further details: dose 125 nL, time 70.5 hour; cytotoxicity at 70.5 h: concentration not given beside the values. In kind it is toxicity, cell-based. The following applies: HepG2 cells, read-out: Inhibition.

`CC(CN1CCOCC1)NC(=O)N1CCN(S(C)(=O)=O)CC1` (centres undefined): the cytotoxicity at 70.5 h was found to be 27.9%.
For `O=S(=O)(c1cc(F)ccc1N1CC(n2cccn2)C1)C(F)(F)F` the value was -0.145%; for `COc1ccc(OCCNC(=O)CN(C)Cc2nnc(C)n2C)cc1`, 29.6%; for `O=C(Nc1cccc(N2CCCC2)c1)N[C@H](CCO)c1ccccc1`, 2.92%.
For `CC1CCC(O)(CSc2nnnn2C)CC1` (centres undefined) the value was -3.28%; for `Cc1ccc(CNC(=O)c2ccc(=O)n(C)n2)c(OCC2CC2)c1`, -4.46%; for `CCc1nnc(CS(=O)(=O)c2ccc(C)cc2)n1C`, -0.707%.
For `CC(CN1CCOC1=O)NC(=O)c1cccc2cc[nH]c12` (centres undefined), the cytotoxicity at 70.5 h is -3.45%.
Take `Clc1snnc1CN(Cc1cccs1)C1CC1`: the cytotoxicity at 70.5 h is -5.36%.
For `CN(Cc1cccs1)Cc1nnsc1Cl` the value was -4.68%.
For `CCC1(CC)CC(=O)N(CC(O)c2cc(F)ccc2F)C1=O` (centres undefined) the value was -4.77%.
For the compound `Clc1ccc2c(c1)C=C(CNC1CCc3ncnn3C1)CO2` (centres undefined), the cytotoxicity at 70.5 h was -7.55%.
For `CCc1noc(C(C)N2CCc3c(ncn3C3CC3)C2)n1` (centres undefined) the value was 28.1%; for `CC(c1nc(C2CC2)no1)N1CCc2c(ncn2C)C1` (centres undefined), 0.478%; for `CC(OCC1CC1)C(=O)Nc1cccc(C(=O)Nc2ccncc2)c1` (centres undefined), -10.9%.
For `COc1ccc2c(c1)OCC(CNC1CCc3nc(C)nn3C1)=C2` (centres undefined), the cytotoxicity at 70.5 h is -8.64%.
For `COc1cc(NC(=O)N(C)C(C2CC2)C2CC2)ncn1` the value was -3.68%.
For `CN(C1CCCCC1)S(=O)(=O)N1CCN(Cc2ccco2)CC1`, the cytotoxicity at 70.5 h was -7.86%.
For `CN1CCC(N(Cc2ccccc2)C(=O)c2ccn3ccnc3c2)CC1` the value was -2.58%; for `CN(C)c1ccc(NC(=O)c2cccc(N(C)C)c2)nc1`, 15.4%; for `NC1(c2nc(-c3ccccc3)cc(=O)[nH]2)CCCCC1`, -10.8%.
For `O=C(CNC(=O)C1CC1)Nc1c(F)cccc1Oc1ccccc1` the value was -3.31%.
On to `O=C(CNC(=O)Nc1c(F)cccc1Oc1ccccc1)NC1CC1`, for which the cytotoxicity at 70.5 h was -9.17%.
For `COCCN(C(=O)c1ccoc1C)c1ccc(C#N)cc1` the value was -4.2%; for `O=C(NCCc1nncn1C1CC1)C1SCCc2ccccc21` (centres undefined), -7.17%.
In the case of `Cc1nc(C(C)(C)NCc2nnc(C(C)C)o2)sc1C`, the cytotoxicity at 70.5 h stood at 1.69%.
For `CC(=O)N1CC(C)CN(Cc2ccon2)c2ccccc21` (centres undefined) the value was -4.58%; for `CC(O)CCN(C)S(=O)(=O)Cc1ccc(Cl)c(Cl)c1` (centres undefined), -3.92%.
For `CC(O)CCN(C)S(=O)(=O)Cc1ccc(Br)cc1` (centres undefined) the value was 23.3%.
For `COc1cccc(/C=C/CCN2CCC(C(=O)N3CCCC3)CC2)c1` the value was 3.93%.
For the compound `CC(C)N(C)S(=O)(=O)N1CCN(Cc2ccco2)CC1`, the cytotoxicity at 70.5 h was -5.12%.
For `Cc1ccccc1CN1CCCN(S(=O)(=O)N(C)C2CCCCC2)CC1` the value was -7.92%; for `CC(C)c1ccc(OCCC(=O)N(C)CC(=O)N(C)C)cc1`, 16%.
For `COc1ccccc1CC(NC(=O)N1CCC[C@@H]1CO)C(C)C` (some centres undefined) the value was -6.32%; for `CN(C1CCCCC1)S(=O)(=O)N1CCN(Cc2ccon2)CC1`, -9.52%.
For `CCN(CC)CCn1cc(NC(=O)c2ccccc2OC)cn1` the value was -12.2%.
For the compound `CC1COCCN1C(=O)c1ccc(=O)n(Cc2ccccc2)n1` (centres undefined), the cytotoxicity at 70.5 h is -4.29%.
For `O=C(NCCOc1ccccc1)c1ccc2c(c1)C(=O)NC2=O` the value was 3.38%.
For `COC(=O)c1ccc(N2CCN(C(=O)C3CC3)C(C)C2)cc1` (centres undefined) the value was -5.06%; for `CCOCCCOC(=O)c1ccc2c(c1)[nH]c(=O)n2C`, 18.6%.
For `O=C(NCc1nncn1C1CC1)C1(c2ccccc2)CCOCC1` the value was -6.33%; for `O=C(NCc1nncn1C1CC1)C1(c2ccc(F)cc2)CCCC1`, 14.3%; for `CC(c1ncc(C(C)(C)C)o1)N1CCN(c2ccncc2)CC1` (centres undefined), -2.28%.
With `CCCn1nnnc1CSc1nccn1Cc1ccccn1`, the cytotoxicity at 70.5 h is -13.2%.
In the case of `CC(c1ncc(C(C)(C)C)o1)N1CCN(Cc2ccncc2)CC1` (centres undefined), the cytotoxicity at 70.5 h was -12.1%.
For `COc1ccc(NC(=O)NCC(C)N2CCc3ccccc32)cc1` (centres undefined) the value was -11.4%; for `CC(CNC(=O)c1cccc(C#N)c1)N1CCc2ccccc21` (centres undefined), -11.4%.
For `Cc1ccc(C(=O)NC2CCCN(c3ncccn3)C2)cn1` (centres undefined) the value was 19.3%.
`CN(CC(=O)Nc1nc2c(s1)CCCCCC2)C(=O)c1ccco1`: the cytotoxicity at 70.5 h was -17.3%.
For `CNC(=O)NC(=O)C(C)Nc1ccccc1OCCOC` (centres undefined) the value was -10.8%; for `NC(=O)CN(CC(=O)NCc1cccc(Cl)c1)C1CCCC1`, -11.2%.
With `NC(=O)CN(CC(=O)NCCc1c(F)cccc1F)C1CCCC1`, the cytotoxicity at 70.5 h turned out to be 23.5%.
For `Cc1noc(C(C)N2CCN(c3ncnc4ccccc34)CC2)n1` (centres undefined) the value was -13.6%.
For `CCN(CC)c1nc2sc(C(=O)NC(C)(C)C(=O)OC)cc2s1` the value was 0.56%; for `CCNc1cc2c(nn1)CCN(C(=O)C1Cc3ccccc3O1)C2` (centres undefined), -12.9%; for `Cn1cc(C2CCCN2C(=O)CS(=O)(=O)C2CCCC2)cn1` (centres undefined), -8.05%.
For `CN(C)c1cc2c(nn1)CCN(C(=O)c1cc3c(s1)CCCC3)C2` the value was 13.1%; for `Cc1cccc(NCCNc2ccc(C#N)cn2)n1`, -5.87%.
For the compound `COc1c(C2CCCN2CCOc2ccccc2C#N)c(C)nn1C` (centres undefined), the cytotoxicity at 70.5 h was -0.493%.
For `COc1cc(OC)cc(N2CCC(NC(=O)c3ccc[nH]3)CC2)c1` the value was -7.63%.
Take `Cn1cccc1C(=O)NC1CCN(c2ccc(OC(F)(F)F)cc2)CC1`: the cytotoxicity at 70.5 h worked out at 16.6%.
On to `COCCNc1ccccc1CNC(=O)NCc1ccc(C)s1`, for which the cytotoxicity at 70.5 h is -6.41%.
In the case of `CCOCCN1CCN(CCOC)CC1C` (centres undefined), the cytotoxicity at 70.5 h was -8.63%.
For `CCn1cc(C(=O)N2CCCN(c3cccnn3)CC2)c2ccccc21` the value was 14.2%; for `COc1ccnc(N2CCCN(c3nc(C4CC4)ns3)CC2)n1`, -9.55%; for `CC(Cc1ccsc1)NC(=O)c1cc(N2CCNC2=O)ccc1F` (centres undefined), -9.62%.
For `CN(C)C1CCCN(C(=O)NCCC(C)(C)C)C1` (centres undefined) the value was 16.4%; for `CCOCCNC1(c2ccc(Cl)cc2)CCOCC1`, 9.63%.
For `CCC(CC)NC(=O)c1cncc(Br)c1` the value was 1.03%; for `CCC(C)NC(=O)c1cncc(Br)c1` (centres undefined), -2.39%.
With `CN1N=C(C(=O)N2CCN(c3ncccn3)CC2)CCC1=O`, the cytotoxicity at 70.5 h amounted to 1.03%.
For `CC(NC(=O)CNC(=O)OC(C)(C)C)c1ccc(Cl)s1` (centres undefined) the value was 10.9%; for `COc1ccc2c(c1)CCCN2C(=O)CN1CCOC(CN(C)C)C1` (centres undefined), -4.78%.
For `CN(C)C1CCCN(C(=O)NCCNC(=O)C2CCCC2)C1` (centres undefined) the value was -1.02%.
